Measurements as given in US20120208848A1 (NEUROSYSTEC CORPORATION, priority 2005, published 2012).

Columns and labels:
Type in all cases: physicochemical
[1] = Gacyclidine decomposition in Ringer's Lactate at 37° C.
Experimental: (§1) To monitor piperidine formation a Zorbax SB-CN column (25×0.46 cm, 5 μm; PN 880975, SN USS F01 3866) purchased from Agilent Technologies was maintained at 30° C. and eluted with a mixture composed of 50% Buffer A and 50% Buffer B at 150 μL/minute for 60 minutes. Buffer A was composed of water containing 0.1% trifluoroacetic acid and Buffer B was composed of acetonitrile containing 0.1% trifluoroacetic acid. The effluent from this column was interfaced with an AQA single quadrupole mass spectrometer (Thermo Electron) and a Surveyor PDA detector (UV monitor, Thermo Electron). The column effluent was monitored at 232 nm and scans were collected between 200 to 300 nm by use of the PDA detector. […] Piperidine was detected by the mass spectrometer at 16.0 minutes after injection onto the Zorbax SB-CN column (at m/z=86 only). Piperidine could not be detected by use of the PDA (UV monitor).
The pH of these Ringer's Lactate solutions was adjusted by addition of hydrochloric acid or sodium bicarbonate ([…]). […] To analyze these samples for gacyclidine and piperidine, the samples were first extracted with methylene chloride and then back-extracted into dilute hydrochloric acid. To the 0.40 mL sample to be analyzed were added 50 μL of 1.0 M sodium hydroxide and 0.8 mL of methylene chloride. After vigorous mixing, the aqueous and methylene chloride layers were allowed to separate. To 0.4 mL of the methylene chloride phase were added 20 μL of 1.0 M hydrochloric acid and 0.78 mL of water. After vigorous mixing, the aqueous and methylene chloride layers were allowed to separate and the aqueous layer was analyzed for gacyclidine and piperidine. This extraction procedure was necessary to remove the salt present in the sample for optimum detection of piperidine.

[2] = Loss of 25 μM gacyclidine in polypropylene vials with and without SOLUTOL HS 15; conditions: 0.15 M NaCl, 37° C., one or three days
Experimental: Some of these solutions also contained 0.1% SOLUTOL® HS 15.
Although the results after three days of incubation parallel those obtained after one day of incubation at 37° C., the increased loss observed at low pH in the samples incubated for three days presumably reflected losses due to decomposition.

[3] = Gacyclidine remaining in solution as a function of pH and excipients, 37° C., polypropylene vials
Experimental: This same procedure was conducted at 37° C., and the samples were maintained in polypropylene vials (VWR # 20170-710, 2 mL vial).

[4] = Effect of pH on gacyclidine decomposition and solubility in Ringer's solution at 55° C.; conditions: 100 μM in Ringer's solution, 24 hours, pH 7.3 to 8.1, no excipient
Experimental: These samples were then incubated at 55° C. for 24 hours.
The pH of each sample was determined at 55° C. by use of a pH meter standardized at 55° C. The pH meter, electrode and standards were the same as described in Example 3.

[5] = Elution of gacyclidine from a suspension of the free base form
Experimental: The pH of these solutions was monitored by use of a pH meter, as described in Example 3. […] The average temperature of these solutions was 23° C. and varied between 21 and 25° C.

[6] = Chemical stability of gacyclidine acid and base forms (decomposition to piperidine); conditions: for decomposition rate: 54° C.; for time required for 10% loss of gacyclidine due to decomposition / rate of decomposition: acid form
Experimental: as §1
Both sets of samples were then incubated for various lengths of time at either 54 or 56° C.
At 5° C., the rate of decomposition was very slow and was difficult to measure, except by determining piperidine formation. The rate of decomposition at 5° C. was approximately 0.0001 day^−1, as determined by piperidine formation, or 0.000055 day^−1 as determined by extrapolation from the rates at higher temperature according to the Arrhenius relationship.

[7] = Effect of pH and polysorbate 80 on gacyclidine stability in Ringer's solution at 55° C.
Experimental: These samples were then incubated at 55° C. for 24 hours. […] The pH of each sample was determined at 55° C. by use of a pH meter standardized at 55° C. The pH meter, electrode and standards were the same as described in Example 3.

[8] = 0.1% SOLUTOL HS15, 37° C., polypropylene vials
[9] = 0.1% TWEEN 80, 37° C., polypropylene vials
[10] = Ringer's Lactate 133 μM NaHCO3, 1.10 days
[11] = Ringer's Lactate 133 μM NaHCO3, 1.54 days
[12] = Ringer's Lactate 133 μM NaHCO3, 5.79 days
[13] = Ringer's Lactate without pH adjustment, 1.10 days
[14] = Ringer's Lactate without pH adjustment, 1.54 days
[15] = Ringer's Lactate without pH adjustment, 5.79 days

Structure (SMILES): CC1CCCCC1(c1cccs1)N1CCCCC1.Cl (stereo not drawn) [gacyclidine, 1-(2-methyl-1-thiophen-2-yl-cyclohexyl)-piperidine hydrochloride]
- pKa ([1]; Ringer's Lactate solution, 37° C., from decomposition rates, read-out: apparent pKA): 7.6
- Time for 10% Loss (37° C., Ringer's Lactate) ([1]; pH 5.5, 100 μM gacyclidine): 3.7 ± 0.1 days
- Time for 10% Loss (37° C., Ringer's Lactate) ([1]; pH 6.0, 100 μM gacyclidine): 3.82 ± 0.03 days
- Time for 10% Loss (37° C., Ringer's Lactate) ([1]; pH 7.4, 100 μM gacyclidine): 6.1 ± 0.4 days
- decomposition rate as % of the rate expected for the acid form ([1]; pH 7.4, 37° C., Ringer's Lactate): 62%
- fraction of gacyclidine in the acid form ([1]; pH 7.4 and 37° C.): 62%
- effect of 0.1% SOLUTOL on losses of gacyclidine from solution [2]: no effect
- pH above which losses of gacyclidine were observed [2]: > 6
- solubility of the basic form with excipient ([3]; 0.1% CAPTISOL, 37° C., polypropylene containers): did not result in a clearly defined solubility
- gacyclidine retained in solution at high pH [3, 8]: ~32 μM
- gacyclidine retained in solution at high pH, % of total gacyclidine added [3, 8]: ~3.2%
- gacyclidine retained in solution at high pH [3, 9]: about 20 μM
- gacyclidine retained in solution at high pH, % of total gacyclidine added [3, 9]: ~2.0%
- solubility kinetic at 2 days ([3]; buffered aqueous solution, aqueous buffer, pH 9.2, 37° C., polypropylene vials, presence or absence of 0.1% SOLUPHOR P): ~1 µM
- gacyclidine remaining in solution, % of the total gacyclidine added ([3]; pH 9.2, 37° C., polypropylene vials, presence or absence of 0.1% SOLUPHOR P): ~0.1%
- loss of gacyclidine from solution [4]: loss of gacyclidine both by decomposition and by precipitation from solution
- gacyclidine ([5]; 2.8 mg free base in 20.0 mL Ringer's Lactate 133 μM NaHCO3, 23° C., 0.625 days): 20.7 µM
- gacyclidine ([5]; 2.8 mg free base in 20.0 mL Ringer's Lactate without pH adjustment, 23° C., 0.625 days): 56.4 µM
- pH of free base suspension ([5]; Ringer's Lactate 133 μM NaHCO3, 0.625 days): 7.54
- gacyclidine [5, 10]: 37.1 µM
- pH of free base suspension [5, 10]: 7.58
- gacyclidine [5, 11]: 46.2 ± 0.3 µM
- pH of free base suspension [5, 11]: 7.51
- gacyclidine [5, 12]: 76.3 ± 0.3 µM
- pH of free base suspension [5, 12]: 7.62
- gacyclidine ([5]; Ringer's Lactate 133 μM NaHCO3, 9.85 days): 77.2 ± 0.5 µM
- gacyclidine ([5]; Ringer's Lactate 133 μM NaHCO3, 12.9 days): 72.9 ± 1.1 µM
- gacyclidine ([5]; Ringer's Lactate 133 μM NaHCO3, 14.0 days): 75.7 ± 2.0 µM
- time to reach equilibrium concentration ([5]; Ringer's Lactate containing 0.13 mM sodium bicarbonate): ≤ 10 days
- equilibrium concentration as % of the total amount of gacyclidine base added ([5]; Ringer's Lactate with added sodium bicarbonate): ~14%
- equilibrium concentration as % of the total amount of gacyclidine base added ([5]; Ringer's Lactate without added sodium bicarbonate): about 30%
- pH of free base suspension ([5]; Ringer's Lactate without pH adjustment, 0.625 days): 7.66
- gacyclidine [5, 13]: 79.8 µM
- pH of free base suspension [5, 13]: 7.44
- gacyclidine [5, 14]: 88.3 ± 2.4 µM
- pH of free base suspension [5, 14]: 7.46
- gacyclidine [5, 15]: 124.4 ± 14.5 µM
- pH of free base suspension [5, 15]: 7.38
- gacyclidine ([5]; Ringer's Lactate without pH adjustment, 9.85 days): 152.4 ± 0.7 µM
- gacyclidine ([5]; Ringer's Lactate without pH adjustment, 12.9 days): 162.2 ± 1.4 µM
- gacyclidine ([5]; Ringer's Lactate without pH adjustment, 14.0 days): 157.9 ± 3.6 µM
- time to reach equilibrium concentration ([5]; Ringer's Lactate without sodium bicarbonate): ≤ 10 days
- maximum concentration achieved at equilibrium ([5]; solid gacyclidine base, starting pH near physiologic pH): about 75 μM
- decomposition rate ([6]; 1.0 mM gacyclidine in 10 mM hydrochloric acid (acid form)): 0.52 day⁻¹
- decomposition rate ([6]; 1.0 mM gacyclidine suspended in 1.5 mM sodium hydroxide (base form)): 0.0013 day⁻¹
- time required for 10% loss of gacyclidine due to decomposition ([6]; 5° C.): 3 years
- rate of decomposition ([6]; 5° C., determined by piperidine formation): approximately 0.0001 day^−1
- rate of decomposition ([6]; 5° C., extrapolation from rates at higher temperature (Arrhenius)): 0.000055 day⁻¹
- time required for 10% loss of gacyclidine due to decomposition ([6]; 23° C.): 53 days
- time required for 10% loss of gacyclidine due to decomposition ([6]; 37° C.): 3.8 days
- rate of decomposition ([6]; 55° C.): 0.73 day⁻¹
- time required for 10% loss of gacyclidine due to decomposition ([6]; 56° C.): 0.138 days
- piperidine formed from 100 μM gacyclidine ([7]; 0.3% polysorbate 80, Ringer's solution, 55° C., 24 hours, pH 6.7): 4.5 µM
- piperidine formed from 100 μM gacyclidine ([7]; 0.3% polysorbate 80, Ringer's solution, 55° C., 24 hours, pH 8.2): 0.92 µM
- loss of gacyclidine due to precipitation ([7]; 0.3% polysorbate 80, Ringer's solution, 55° C., 24 hours, various pH): no loss of gacyclidine due to precipitation
- decomposition rate as % of the acid form rate at 55° C. ([7]; 0.3% polysorbate 80, pH 6.7, 55° C.): 6.4%
- decomposition rate as % of the acid form rate at 55° C. ([7]; 0.3% polysorbate 80, pH 8.2, 55° C.): 1.3%
